Assay results published in patent US7691842B2, “Tricyclic 6-alkylidene-penems as β-lactamase inhibitors” (Wyeth LLC, priority 2002, dated 2010).
Where a name gives a salt, the structure may show the parent alone. Read-outs that look alike come from different tables or passages of the source.

What was measured:
[1] = target: class A β-lactamase TEM-1 (Escherichia coli, UniProt P62593); experiment: β-Lactamase inhibition, IC50 determination (nitrocefin, spectrophotometric); type: biochemical, E. Coli
Protocol: (§1) IC50 Determination for the Penem Inhibitor
(§2) β-Lactamase inhibitory activity of the penem inhibitors was determined spectrophotometrically as described by Bush et al., [Bush, K., Macalintal, C., Rasmussen, B. A., Lee, V. and Yang, Y. Antimicrobial Agents and Chemotherapy 1993, 37, 851]. Homogeneously purified class A β-lactamases TEM-1 from E. Coli and Imi-1 from Enterobacter cloacae, class B enzyme CcrA from Bacteroides fragilis and class C enzyme AmpC from Enterobacter cloaca were employed in the assay. The enzyme concentrations for TEM-1, Imi-1, CcrA and AmpC were 4.3, 7.1, 1.2 and 2.1 nM, respectively. A wide range of inhibitor concentrations were prepared in 50 mM PO4, pH 7.0 to include the possible IC50 values. The substrate used to initiate the enzyme reaction was nitrocefin at 50 μg/ml in the same buffer as the inhibitor. Initially the enzyme and inhibitor (20 μl each) were preincubated for 10 minutes at 25° C. prior to the addition of 160 μl volume of nitrocefin. Initial rates of hydrolysis were monitored for 5 minutes at 495 nm using a Molecular Devices Spectra Max 250 with kinetic protocol of SoftMax Program. Readings from the Spectra Max 250 were exported and transferred to Microsoft Excel. The percent of inhibition of each inhibitor concentration was calculated based on the control enzyme activity. The inhibitor concentration that caused a 50% reduction in the enzymatic activity (IC50) was determined graphically.

[2] = target: class A β-lactamase Imi-1 (Enterobacter cloacae, UniProt Q46991); experiment: as above; type: biochemical
Protocol: as §1, §2

[3] = target: class B enzyme CcrA (Bacteroides fragilis, UniProt P25910); experiment: as above; type: biochemical; conditions: read-out: IC50 (nM) Class B Ccr
Protocol: as §1, §2

[4] = target: class C enzyme AmpC (Enterobacter cloacae, UniProt P05364); experiment: biochemical; design: species or system Enterobacter cloaca
Protocol: as §1, §2

[5] = tested on: Clinical isolates that have been adapted to cause infection in mice; experiment: In vivo antibacterial protection (7 day survival of infected mice, ED50); design: species or system mice strain CD-1; conditions: Mus musculus, 168 h
Description: In Vivo Antibacterial Protection
Female mice strain CD-1, approximately 18-22 grams, were received from Charles River Laboratories and quarantined 7 days prior to use. In addition, mice may be rendered neutropenic using cytoxan for particular studies.
Clinical isolates that have been adapted to cause infection in mice, are used in the experiment, including infections with strains of E. coli, K. pneumoniae, M. morganii, E. cloacae, S. marcescens, C. freundii, staphylococci, streptococci, P. aeruginosa and N. gonorrhoeae.
Mice are challenged by injecting 0.5 ml intraperitoneally or 0.05 ml intranasally of a predetermined bacterial inoculum suspended in broth, saline or hog gastric mucin (supplemented with dried bovine hemoglobin for N. gonorrhoeae). […] Antibacterial doses (dose concentration prepared by two fold serial dilutions of the antibiotic) are dissolved or suspended in 0.2% aqueous agar or methocel, phosphate buffered saline or an adjuvant are administered orally, subcutaneously or intravenously in the following manner: • a) Orally or subcutaneously: Dose volume of 0.5 ml administered ½ hr after infection. A second dose may be administered 3 hr. after infection for treatment of infections with more virulent organisms. • b) Intravenously: Dose volume of 0.2 ml, administered ½ hr. after infection. For the treatment of infections with more virulent organisms, more doses, up to 48 hr may be administered. (Intravenous dosing will not exceed 3 doses/24 hr period.) • c) Oral pretreatment: Under special circumstances, the pH of the stomach needs to be adjusted in order to increase the gastric stability of the antibiotic. For this purpose, 0.5 ml of phosphate buffered saline (pH7.8, 0.06M) (or specific approved adjuvant) is administered orally ½ hr after infection, followed 5 minutes later by 0.5 ml of antibiotic (also orally) contained in phosphate buffered saline (pH7.8, 0.06M). Animal Species
A detailed explanation as to the number of animals needed for the determination of in vivo efficacy follows: • A) Novel antibiotics are tested at 5 different dose levels with 5 mice per dose level at each of three routes of administration (oral, subcutaneous and intravenous). […] This would require 25 mice/route with 3 routes/antibiotic or 75 mice per novel compound tested. One to two novel antibiotics will be tested per experiment (75-150 mice) • B) The effectiveness of the new compound must be compared to that of a standard, or antibiotic of known effectiveness. Known or previously tested antibiotics are tested at 5 dose levels with 5 mice per dose level by a single route of administration, for a total of 25 mice/antibiotic. Usually 3-6 antibiotics will be tested per experiment. (75-150 mice). • C) Untreated controls—In each of the above tests, untreated animals are infected with 3 different concentrations of bacterial inoculum with 10 mice per concentration (30 mice total in each and every test). These untreated controls are used to determine and maintain the infection level between 10-100 LD50s as required for test to test comparison and validity. Determination of Protective Effects of Antibacterial Agents:
The protective effects of the antibacterial agent(s) are measured by the survival of the infected untreated as compared to the treated animals. For this determination, animals are observed for 7 days after treatment. A census of survivors is taken twice daily and at that time dead as well as moribund animals are removed. The 7 day survival ratio from three separate tests are pooled for estimation of median effective dose (ED50) by computerized program for probit analysis (Cleeland, R. and E. Squires. 1991. Evaluation of New Antimicrobials in Vitro and in Experimental Animal Infections. In Antibiotics in Laboratory Medicine”, 3rd. ed., edited by Victor Lorian. Willams and Wilkins Baltimore, Md. pp. 752-783). […]

[6] = tested on: E. Cloacae GC1477 (Ampc); experiment: Antimicrobial susceptibility testing, microbroth dilution MIC of piperacillin + inhibitor; type: cell-based; conditions: piperacillin combined with constant 4 μg/ml inhibitor; Inc: 35° C. for 18 hours
Protocol: (§3) Antimicrobial susceptibility testing. The in vitro activities of the antibiotics were determined by the microbroth dilution method as recommended by the National Committee for Clinical Laboratory Standards (NCCLS). (NCCLS. 2000. Methods for Dilution Antimicrobial Susceptibility Tests for Bacteria That Grow Aerobically; Approved Standards: M7-A5, vol. 19. National Committee for Clinical Laboratory Standards, Villanova, Pa.). Mueller-Hinton it broth (MHBII)(BBL Cockeysville, Md.), was used for the testing procedure. Microtiter plates containing 50 μl per well of two-fold serial dilutions of piperacillin combined with a constant amount (4 μg/ml) of a B-lactamase inhibitor (final concentration) were inoculated with 50 μl of inoculum to yield the appropriate density (10^5 CFU/ml) in 100 μl. The plates were incubated for 18-22 hours at 35° C. in ambient air.

[7] = tested on: E. Coli GC2203; experiment: as above; type: cell-based; conditions: piperacillin combined with constant 4 μg/ml inhibitor; Inc: 35° C. for 18 hours
Protocol: as §3

[8] = tested on: E. Coli GC2844; experiment: as above; type: cell-based; conditions: piperacillin combined with constant 4 μg/ml inhibitor; Inc: 35° C. for 18 hours
Protocol: as §3

[9] = tested on: E. Coli GC2847 (TEM-1); experiment: as above; type: cell-based; conditions: piperacillin combined with constant 4 μg/ml inhibitor; Inc: 35° C. for 18 hours
Protocol: as §3

[10] = tested on: E. Coli GC2894 (Ampc); experiment: as above; type: cell-based; conditions: piperacillin combined with constant 4 μg/ml inhibitor; Inc: 35° C. for 18 hours
Protocol: as §3

[11] = tested on: E. Coli GC2920 (IRT-2); experiment: as above; type: cell-based; conditions: piperacillin combined with constant 4 μg/ml inhibitor; Inc: 35° C. for 18 hours
Protocol: as §3

[12] = tested on: P. aeruginos GC1764 (Ampc); experiment: as above; type: cell-based; conditions: piperacillin combined with constant 4 μg/ml inhibitor; Inc: 35° C. for 18 hours
Protocol: as §3

[13] = tested on: S. Marcescens GC1781 Sme-1 + Ampc; experiment: as above; type: cell-based; conditions: piperacillin combined with constant 4 μg/ml inhibitor; Inc: 35° C. for 18 hours
Protocol: as §3

[14] = tested on: S. aureus GC2216; experiment: as above; type: cell-based; conditions: piperacillin combined with constant 4 μg/ml inhibitor; Inc: 35° C. for 18 hours
Protocol: as §3

[15] = enzyme 4.3 nM, 10 min preincubation at 25° C., nitrocefin 50 μg/ml, 50 mM PO4, pH 7.0, read-out: IC50 (nM) Class A TEM-1
[16] = enzyme 1.2 nM, 10 min preincubation at 25° C., nitrocefin 50 μg/ml, 50 mM PO4, pH 7.0
[17] = Ratio of Piperacillin Inhibitor 2:1, read-out: ED50
[18] = Ratio of Piperacillin Inhibitor 4:1, read-out: ED50

Sequence of class A β-lactamase TEM-1 (P62593 24-286 limits assumed): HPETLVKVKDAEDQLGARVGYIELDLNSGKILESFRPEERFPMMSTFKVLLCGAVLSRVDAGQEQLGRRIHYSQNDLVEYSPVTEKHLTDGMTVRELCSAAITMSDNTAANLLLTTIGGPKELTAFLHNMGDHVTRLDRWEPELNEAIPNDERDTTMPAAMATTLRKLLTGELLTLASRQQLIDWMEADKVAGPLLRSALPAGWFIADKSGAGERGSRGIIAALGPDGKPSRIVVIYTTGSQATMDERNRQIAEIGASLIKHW
Sequence of class C enzyme AmpC (P05364 21-381): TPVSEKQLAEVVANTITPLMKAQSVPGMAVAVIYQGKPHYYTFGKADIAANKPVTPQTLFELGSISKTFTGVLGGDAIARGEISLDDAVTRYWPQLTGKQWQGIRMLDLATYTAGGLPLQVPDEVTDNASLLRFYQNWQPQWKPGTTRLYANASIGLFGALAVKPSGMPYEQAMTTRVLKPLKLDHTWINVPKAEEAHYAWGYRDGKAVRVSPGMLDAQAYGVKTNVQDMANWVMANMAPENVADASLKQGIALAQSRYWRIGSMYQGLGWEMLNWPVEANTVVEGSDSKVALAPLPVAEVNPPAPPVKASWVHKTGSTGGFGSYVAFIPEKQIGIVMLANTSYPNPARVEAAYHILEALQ
Sequence of class A β-lactamase Imi-1 (Q46991 entry or part of it): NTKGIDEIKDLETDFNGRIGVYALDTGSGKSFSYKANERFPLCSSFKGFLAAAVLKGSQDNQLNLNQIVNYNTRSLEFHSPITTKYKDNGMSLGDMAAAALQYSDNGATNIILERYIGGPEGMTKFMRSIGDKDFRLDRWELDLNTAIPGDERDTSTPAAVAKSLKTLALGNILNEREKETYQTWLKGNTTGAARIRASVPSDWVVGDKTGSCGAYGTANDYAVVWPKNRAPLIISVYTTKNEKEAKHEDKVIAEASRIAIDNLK
Sequence of class B enzyme CcrA (P25910 19-249): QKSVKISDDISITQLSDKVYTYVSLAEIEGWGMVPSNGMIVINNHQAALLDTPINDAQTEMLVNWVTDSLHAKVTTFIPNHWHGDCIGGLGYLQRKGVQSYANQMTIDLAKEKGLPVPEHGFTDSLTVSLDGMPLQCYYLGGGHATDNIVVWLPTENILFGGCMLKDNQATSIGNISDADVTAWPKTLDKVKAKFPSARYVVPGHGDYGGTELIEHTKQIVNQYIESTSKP

Compound | IC50 [1, 15] | IC50 [2] | IC50 [3, 16] | IC50 [4] | ED50 [5, 17] | IC50 [1] | ED50 [5, 18] | further results
O=C(O)C1=CS[C@@H]2/C(=C\c3cn4c(n3)sc3ccccc34)C(=O)N12 [Example 1, (5R,6Z)-6-(Imidazo[2,1-b][1,3]benzothiazol-2-ylmethylene)-7-oxo-4-thia-1-azabicyclo[3.2.0]hept-2-ene-2-carboxylic acid] | 10 nM | 160 nM | 350 nM | 1.4 nM | 32 to 64 mg/kg |  |  | 
COc1ccc2c(c1)sc1nc(/C=C3/C(=O)N4C(C(=O)O)=CS[C@H]34)cn12 [Example 2] | 18 nM | 180 nM | 250 nM | 2.4 nM | > 64 mg/kg |  |  | 
O=C(O)C1=CS[C@@H]2/C(=C\c3cn4c(ccc5ccccc54)n3)C(=O)N12 [Example 4, (5R),(6Z)-6-Imidazo[1,2-a]quinolin-2-ylmethylene-7-oxo-4-thia-1-azabicyclo[3.2.0]hept-2-ene-2-carboxylic acid] |  | 90 nM | 900 nM | 2.1 nM | 32 to 64 mg/kg | 6 nM |  | 
O=C(O)C1=CS[C@@H]2/C(=C\c3cn4c(n3)nc3n4CCCC3)C(=O)N12 [Example 8, (5R), (6Z)-6-(4,5,6,7-tetrahydro-1,3a,3b,8-tetraaza-cyclopenta[a]indene-2-ylmethylene)-7-oxo-4-thia-1-aza-bicyclo[3.2.0]hept-2-ene-2-carboxylic acid sodium salt] |  | 15 nM | 450 nM | 1.4 nM |  | 2.4 nM | 16 to 64 mg/kg | 
CCOc1nc2nc(C=C3C(=O)N4C(C(=O)O)=CSC34)cn2c2c1CCC2 (stereo not drawn) [Example 10, 6-(5-ethoxy-7,8-dihydro-6H-3,4,8b-triaza-as-indacen-2-ylmethylene)-7-oxo-4-thia-1-aza-bicyclo[3.2.0]hept-2-ene-2-carboxylic acid] |  | 35 nM | 140 nM | 5.8 nM |  | 48 nM | 55.6 mg/kg | 
O=C([O-])C1=CS[C@@H]2C(=Cc3cc4n(n3)Cc3ccccc3OC4)C(=O)N12.[Na+] [Example 11, (5R,6E&Z)-7-oxo-6-(4H,10H-pyrazolo[5,1-c][1,4]-benzoxazepin-2-ylmethylene)-4-thia-1-azabicyclo[3.2.0]hept-2-ene-2-carboxylic acid, sodium salt] | 1.4 nM |  | 62 nM |  |  |  |  | IC50 ([2]; enzyme 7.1 nM, 10 min preincubation at 25° C., nitrocefin 50 μg/ml, 50 mM PO4, pH 7.0, read-out: IC50 (nM) Class A Imi): 78 nM; IC50 ([4]; enzyme 2.1 nM, 10 min preincubation at 25° C., nitrocefin 50 μg/ml, 50 mM PO4, pH 7.0, read-out: IC50 (nM) Class C AmpC): 3.6 nM; Minimal Inhibitory Concentration E. Cloacae GC1477 (Ampc) [6]: 32 µg/mL; Minimal Inhibitory Concentration E. Coli GC2203 [7]: 1 µg/mL; Minimal Inhibitory Concentration E. Coli GC2844 [8]: 1 µg/mL; Minimal Inhibitory Concentration E. Coli GC2847 (TEM-1) [9]: 8 µg/mL; Minimal Inhibitory Concentration E. Coli GC2894 (Ampc) [10]: 4 µg/mL; Minimal Inhibitory Concentration E. Coli GC2920 (IRT-2) [11]: 1 µg/mL; Minimal Inhibitory Concentration P. aeruginos GC1764 (Ampc) [12]: 16 µg/mL; Minimal Inhibitory Concentration S. Marcescens GC1781 Sme-1 + Ampc [13]: 1 µg/mL; Minimal Inhibitory Concentration S. aureus GC2216 [14]: <0.06 µg/mL
O=C(O)C1=CS[C@@H]2/C(=C\c3cn4c(n3)-c3ccccc3C4)C(=O)N12 [Example 12, (5R), (6Z)-6-(5H-Imidazo[2,1-a]isoindol-2-ylmethylene)-7-oxo-4-thia-1-aza-bicyclo[3.2.0]hept-2-ene-2-carboxylic acid sodium salt] |  | 6.4 nM | 42 nM | 28 nM |  | 2.6 nM | 50 mg/kg | 
O=C(O)C1=CS[C@@H]2/C(=C\c3cn4c(n3)sc3cc(F)ccc34)C(=O)N12 [Example 14] |  | 270 nM |  | 2.4 nM |  | 8.1 nM |  | IC50 ([3]; pH 7): 370 nM; ED50 ([5]; Ratio of Piperacillin Inhibitor not given, read-out: ED50): > 64 mg/kg
